Values of other authors as cited in publication PMC9851200, “Multiparameter phenotypic screening for endogenous TFEB and TFE3 translocation identifies novel chemical series modulating lysosome function” (Autophagy, 2022).

How the values were obtained:
Design in all cases: method as in original PKIS2 published data
[1] = molecular target: T1, kinases (KINOMEscan panel) (Homo sapiens, UniProt Q09013); conditions: kinase DMPK; Published KINOMEscan; ref original PKIS2 published data; cited from earlier work
T1 sequence (Q09013 1-629): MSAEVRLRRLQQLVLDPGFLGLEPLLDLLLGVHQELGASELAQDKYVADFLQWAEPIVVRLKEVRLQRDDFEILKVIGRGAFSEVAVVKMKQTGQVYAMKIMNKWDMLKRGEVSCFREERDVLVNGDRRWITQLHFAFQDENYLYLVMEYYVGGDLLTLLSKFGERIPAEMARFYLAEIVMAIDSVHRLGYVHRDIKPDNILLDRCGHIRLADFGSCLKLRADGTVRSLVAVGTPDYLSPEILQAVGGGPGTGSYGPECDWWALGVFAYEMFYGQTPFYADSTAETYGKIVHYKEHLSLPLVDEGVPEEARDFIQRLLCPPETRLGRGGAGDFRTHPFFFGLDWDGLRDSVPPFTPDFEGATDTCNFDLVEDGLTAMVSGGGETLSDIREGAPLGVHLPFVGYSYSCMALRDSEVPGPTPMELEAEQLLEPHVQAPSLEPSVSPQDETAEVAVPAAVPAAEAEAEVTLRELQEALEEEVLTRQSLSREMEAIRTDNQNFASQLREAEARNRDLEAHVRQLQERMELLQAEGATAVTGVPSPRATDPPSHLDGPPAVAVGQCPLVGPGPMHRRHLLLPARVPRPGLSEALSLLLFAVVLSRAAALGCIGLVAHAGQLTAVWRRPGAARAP

[2] = molecular target: T2, kinases (KINOMEscan panel) (Homo sapiens, UniProt Q9UF33); conditions: kinase EPHA6; Published KINOMEscan; ref original PKIS2 published data; cited from earlier work
T2 sequence (Q9UF33 23-1036): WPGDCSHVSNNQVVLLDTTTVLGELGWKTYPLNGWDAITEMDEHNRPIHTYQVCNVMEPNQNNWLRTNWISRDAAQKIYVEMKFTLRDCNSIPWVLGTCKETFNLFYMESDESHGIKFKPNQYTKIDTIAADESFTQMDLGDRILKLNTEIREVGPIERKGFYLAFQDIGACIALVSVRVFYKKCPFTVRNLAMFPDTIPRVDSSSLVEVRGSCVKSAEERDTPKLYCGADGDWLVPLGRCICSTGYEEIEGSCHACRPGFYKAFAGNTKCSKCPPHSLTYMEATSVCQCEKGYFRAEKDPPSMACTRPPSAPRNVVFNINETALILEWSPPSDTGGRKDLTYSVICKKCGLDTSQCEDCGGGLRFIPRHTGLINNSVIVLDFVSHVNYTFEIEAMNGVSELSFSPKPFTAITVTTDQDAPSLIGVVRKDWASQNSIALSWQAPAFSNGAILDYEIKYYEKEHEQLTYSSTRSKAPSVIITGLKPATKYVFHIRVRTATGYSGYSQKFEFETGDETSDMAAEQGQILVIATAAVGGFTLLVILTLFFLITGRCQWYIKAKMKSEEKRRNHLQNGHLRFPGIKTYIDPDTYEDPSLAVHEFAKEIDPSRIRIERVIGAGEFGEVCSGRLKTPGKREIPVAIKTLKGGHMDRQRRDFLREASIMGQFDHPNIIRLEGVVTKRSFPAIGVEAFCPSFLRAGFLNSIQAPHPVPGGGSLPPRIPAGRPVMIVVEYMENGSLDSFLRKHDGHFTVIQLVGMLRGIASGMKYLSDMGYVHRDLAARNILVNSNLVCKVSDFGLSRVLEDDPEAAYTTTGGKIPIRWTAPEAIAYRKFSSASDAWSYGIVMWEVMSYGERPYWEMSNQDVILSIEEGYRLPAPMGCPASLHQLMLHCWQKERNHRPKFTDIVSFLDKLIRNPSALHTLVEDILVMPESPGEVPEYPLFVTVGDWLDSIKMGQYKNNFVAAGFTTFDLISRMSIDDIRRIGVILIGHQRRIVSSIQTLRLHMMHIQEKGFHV

[3] = molecular target: kinases (KINOMEscan panel) (Homo sapiens, UniProt Q15569); conditions: TESK1; Published KINOMEscan; ref original PKIS2 published data; cited from earlier work
Sequence of kinases (KINOMEscan panel) (Homo sapiens, UniProt Q15569) (Q15569 whole entry): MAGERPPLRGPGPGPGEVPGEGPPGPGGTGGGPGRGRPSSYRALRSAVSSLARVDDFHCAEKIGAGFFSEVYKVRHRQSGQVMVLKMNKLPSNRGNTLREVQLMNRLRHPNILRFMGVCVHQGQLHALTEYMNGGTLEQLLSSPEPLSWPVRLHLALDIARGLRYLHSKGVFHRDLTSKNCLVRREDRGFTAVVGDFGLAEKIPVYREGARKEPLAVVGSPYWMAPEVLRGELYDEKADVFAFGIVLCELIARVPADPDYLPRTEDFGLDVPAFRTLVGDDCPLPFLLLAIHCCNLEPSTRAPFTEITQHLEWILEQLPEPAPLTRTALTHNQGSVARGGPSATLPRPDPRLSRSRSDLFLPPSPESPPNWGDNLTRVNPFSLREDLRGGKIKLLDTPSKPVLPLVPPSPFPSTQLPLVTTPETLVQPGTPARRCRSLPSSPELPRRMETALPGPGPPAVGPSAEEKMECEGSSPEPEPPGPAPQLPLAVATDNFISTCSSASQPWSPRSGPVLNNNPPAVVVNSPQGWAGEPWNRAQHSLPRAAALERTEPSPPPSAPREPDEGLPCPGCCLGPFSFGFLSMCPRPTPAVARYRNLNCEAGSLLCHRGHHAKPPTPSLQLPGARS

[4] = molecular target: kinases (KINOMEscan panel) (Homo sapiens, UniProt Q9H4B4); conditions: kinase PLK3; Published KINOMEscan; ref original PKIS2 published data; cited from earlier work
Sequence of kinases (KINOMEscan panel) (Homo sapiens, UniProt Q9H4B4) (Q9H4B4 whole entry): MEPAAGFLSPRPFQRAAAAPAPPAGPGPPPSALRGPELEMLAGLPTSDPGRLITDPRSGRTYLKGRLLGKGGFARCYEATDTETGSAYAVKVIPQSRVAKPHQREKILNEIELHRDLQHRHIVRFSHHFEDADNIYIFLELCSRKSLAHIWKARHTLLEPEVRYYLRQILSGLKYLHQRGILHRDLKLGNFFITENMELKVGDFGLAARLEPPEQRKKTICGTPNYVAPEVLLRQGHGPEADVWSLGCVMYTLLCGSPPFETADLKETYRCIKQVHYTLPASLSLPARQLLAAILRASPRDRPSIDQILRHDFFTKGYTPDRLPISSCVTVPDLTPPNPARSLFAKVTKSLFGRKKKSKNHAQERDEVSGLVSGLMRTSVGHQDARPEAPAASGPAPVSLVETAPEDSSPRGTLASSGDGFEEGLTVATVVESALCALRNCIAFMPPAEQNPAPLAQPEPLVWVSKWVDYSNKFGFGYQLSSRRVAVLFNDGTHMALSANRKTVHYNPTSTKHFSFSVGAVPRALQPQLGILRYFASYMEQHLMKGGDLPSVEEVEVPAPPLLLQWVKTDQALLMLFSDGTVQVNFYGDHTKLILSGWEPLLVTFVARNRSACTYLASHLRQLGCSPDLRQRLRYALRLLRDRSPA

[5] = molecular target: kinases (KINOMEscan panel) (Homo sapiens, UniProt Q00536); conditions: kinase CDK16; Published KINOMEscan; ref original PKIS2 published data; cited from earlier work
Sequence of kinases (KINOMEscan panel) (Homo sapiens, UniProt Q00536) (Q00536 whole entry): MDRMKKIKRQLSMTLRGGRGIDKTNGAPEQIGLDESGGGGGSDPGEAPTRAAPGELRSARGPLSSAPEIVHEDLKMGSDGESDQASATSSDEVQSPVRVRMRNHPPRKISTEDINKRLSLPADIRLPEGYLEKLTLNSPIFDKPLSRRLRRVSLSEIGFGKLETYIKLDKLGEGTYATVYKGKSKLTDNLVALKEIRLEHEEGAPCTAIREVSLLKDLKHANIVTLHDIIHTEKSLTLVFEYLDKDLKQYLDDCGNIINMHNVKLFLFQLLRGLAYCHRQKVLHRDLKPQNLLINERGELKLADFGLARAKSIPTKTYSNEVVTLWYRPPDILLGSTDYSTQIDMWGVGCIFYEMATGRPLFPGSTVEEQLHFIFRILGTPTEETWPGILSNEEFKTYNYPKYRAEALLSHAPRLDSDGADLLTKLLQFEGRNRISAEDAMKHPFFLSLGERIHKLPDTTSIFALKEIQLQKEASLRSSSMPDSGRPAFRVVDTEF

[6] = molecular target: T3, kinases (KINOMEscan panel) (Homo sapiens, UniProt Q9UQ88); conditions: Published KINOMEscan; ref original PKIS2 published data; cited from earlier work
T3 sequence (Q9UQ88 1-783): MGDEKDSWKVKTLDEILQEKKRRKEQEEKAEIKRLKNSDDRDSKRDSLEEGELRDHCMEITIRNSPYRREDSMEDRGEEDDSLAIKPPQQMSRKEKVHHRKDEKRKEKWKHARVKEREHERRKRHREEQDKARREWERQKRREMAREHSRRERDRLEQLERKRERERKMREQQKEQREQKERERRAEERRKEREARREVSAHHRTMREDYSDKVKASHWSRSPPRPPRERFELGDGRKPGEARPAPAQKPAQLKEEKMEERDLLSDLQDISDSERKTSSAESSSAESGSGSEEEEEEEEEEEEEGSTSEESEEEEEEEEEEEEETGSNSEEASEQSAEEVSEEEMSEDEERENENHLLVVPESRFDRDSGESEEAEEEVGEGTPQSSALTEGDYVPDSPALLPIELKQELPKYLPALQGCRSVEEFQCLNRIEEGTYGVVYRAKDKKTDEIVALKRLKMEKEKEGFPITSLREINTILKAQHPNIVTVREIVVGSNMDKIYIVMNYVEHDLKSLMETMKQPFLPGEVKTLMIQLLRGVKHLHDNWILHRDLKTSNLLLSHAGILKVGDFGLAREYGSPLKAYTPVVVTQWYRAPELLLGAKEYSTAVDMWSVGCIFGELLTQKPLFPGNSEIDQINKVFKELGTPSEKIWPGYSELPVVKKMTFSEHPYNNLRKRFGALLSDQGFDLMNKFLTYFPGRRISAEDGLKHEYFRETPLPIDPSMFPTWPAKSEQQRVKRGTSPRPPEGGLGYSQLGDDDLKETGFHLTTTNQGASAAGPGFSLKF

## Cc1cccc(-c2nc(Nc3ccncc3)c3ccccc3n2)n1 [NK215]
[1]
  KINOMEscan DMPK: 2
[2]
  KINOMEscan EPHA6: 0
[3]
  KINOMEscan TESK1: 14
[4]
  KINOMEscan PLK3: 0
[5]
  KINOMEscan CDK16: 0
[6]
  KINOMEscan CDK11A: 0
